From article PMC4503722, “Novel Phenotypic Outcomes Identified for a Public Collection of Approved Drugs from a Publicly Accessible Panel of Assays” (PLoS ONE, 2015)

Tests used:
HCT116 = assay: cells; assay type: cell-based; settings: basal; for Basal_Viability ATP HCT116 IC50/EC50: assay number 25
Colo320 = assay: cells; assay type: cell-based; settings: basal; for Basal_Viability ATP Colo 320 IC50/EC50: assay number 27
[1] = system: ECFC/ADSC co-culture cell nuclei number
[2] = system: endothelial tube formation in co-cultures of ECFCs and ADSCs treated with VEGF; assay: cells; assay type: cell-based, human
HT-29 = assay: cells; assay type: cell-based; settings: basal; for Basal_Viability ATP HT-29 IC50/EC50: assay number 28
SNU-C1 = assay: cells; assay type: cell-based; settings: basal; for Basal_Viability ATP SNU-C1 IC50/EC50: assay number 30
RKO = assay: cells; assay type: cell-based; settings: basal; for Basal_Viability ATP RKO IC50/EC50: assay number 29
[3] = system: HCT116 cells treated with a GSK3β inhibitor; assay: cells; assay type: cell-based; settings: for GSK3b inh pretreated_Viability ATP HCT116 IC50/EC50: assay number 26, GSK3b inhibitor pretreated; for IC50/EC50, GSK3b inh pretreated_Viability ATP HCT116 (assay number 26): GSK3b inh pretreated
DLD-1 = assay: cells; assay type: cell-based; settings: basal; for Basal_Viability ATP DLD-1 IC50/EC50: assay number 23
SW480 = assay: cells; assay type: cell-based; settings: basal; for Basal_Viability ATP SW480 IC50/EC50: assay number 24

| Compound | Basal_Viability ATP HCT116 IC50/EC50 (HCT116) [µM] | Basal_Viability ATP Colo 320 IC50/EC50 (Colo320) [µM] | VEGF_ADSC\ECFC Angio Hoechst NucArea IC50/EC50 [1] [µM] | VEGF_ADSC\ECFC Angio CD31 TubeArea IC50/EC50 [2] [µM] | Basal_Viability ATP HT-29 IC50/EC50 (HT-29) [µM] | Basal_Viability ATP SNU-C1 IC50/EC50 (SNU-C1) [µM] | Basal_Viability ATP RKO IC50/EC50 (RKO) [µM] | GSK3b inh pretreated_Viability ATP HCT116 IC50/EC50 [3] [µM] | Basal_Viability ATP DLD-1 IC50/EC50 (DLD-1) [µM] | Basal_Viability ATP SW480 IC50/EC50 (SW480) [µM] | IC50/EC50, Basal_Viability ATP HCT116 (assay number 25) (HCT116) [µM] | IC50/EC50, Basal_Viability ATP Colo 320 (assay number 27) (Colo320) [µM] | IC50/EC50, VEGF_ADSC\ECFC Angio Hoechst NucArea (assay number 3) [1] [µM] | IC50/EC50, VEGF_ADSC\ECFC Angio CD31 TubeArea (assay number 2) [2] [µM] | IC50/EC50, Basal_Viability ATP HT-29 (assay number 28) (HT-29) [µM] | IC50/EC50, Basal_Viability ATP SNU-C1 (assay number 30) (SNU-C1) [µM] | IC50/EC50, Basal_Viability ATP RKO (assay number 29) (RKO) [µM] | IC50/EC50, GSK3b inh pretreated_Viability ATP HCT116 (assay number 26) [3] [µM] | IC50/EC50, Basal_Viability ATP DLD-1 (assay number 23) (DLD-1) [µM] | IC50/EC50, Basal_Viability ATP SW480 (assay number 24) (SW480) [µM] |
| --- | --- | --- | --- | --- | --- | --- | --- | --- | --- | --- | --- | --- | --- | --- | --- | --- | --- | --- | --- | --- |
| CN1CCN(C2Cc3ccccc3Sc3ccc(Cl)cc32)CC1.O=C(O)/C=C\C(=O)O (centres unmarked) [NCGC00015759-05] | 9.1662 | > 6.6667 | > 10 | 5.2302 | 8.001 | 7.8734 | > 20 | 8.3951 | > 20 | 6.3146 |  |  |  |  |  |  |  |  |  |  |
| CC(=O)N(CC(O)CN(C(C)=O)c1c(I)c(C(=O)NCC(O)CO)c(I)c(C(=O)NCC(O)CO)c1I)c1c(I)c(C(=O)NCC(O)CO)c(I)c(C(=O)NCC(O)CO)c1I (centres unmarked) [NCGC00179408-03] | > 20 | > 20 | > 10 | > 10 | > 20 | > 20 | > 20 | > 20 | > 20 | > 20 |  |  |  |  |  |  |  |  |  |  |
| O=C1NCCN1CCN1CCC(c2cn(-c3ccc(F)cc3)c3ccc(Cl)cc23)CC1 [NCGC00181782-03] |  |  |  |  |  |  |  |  |  |  | 2.1598 | 3.6991 | > 10 | > 10 | 2.8613 | 1.4252 | 2.6022 | 3.5177 | 5.6233 | 2.8086 |
| CO[C@H]1O[C@@H]2O[C@@]3(C)CC[C@H]4[C@H](C)CC[C@@H]([C@H]1C)[C@@]24OO3 [NCGC00164591-04] | > 20 | > 20 | > 10 | > 10 | > 20 | > 20 | > 20 | > 20 | > 20 | > 20 |  |  |  |  |  |  |  |  |  |  |
| CCCCCCCC[N+](C)(C)CCCCCCCC [NCGC00182056-04] | 6.2411 | 4.6621 | 7.431 | 1.3911 | 3.9986 | 1.4417 | 2.183 | 3.6902 | 3.2197 | 3.4577 |  |  |  |  |  |  |  |  |  |  |
| CNS(=O)(=O)CCc1ccc2[nH]cc(C3CCN(C)CC3)c2c1.Cl [NCGC00181786-02] |  |  |  |  |  |  |  |  |  |  | > 20 | > 20 | > 10 | > 10 | > 20 | > 20 | > 20 | 12.1308 | > 20 | > 20 |
| CCCCN1CCCC1C(=O)Nc1c(C)cc(C)cc1C (centres unmarked) [NCGC00160363-03] | > 20 | > 20 | > 10 | > 10 | > 20 | > 20 | > 20 | > 20 | > 20 | > 20 |  |  |  |  |  |  |  |  |  |  |
| C[C@H](O)CN(C)C [NCGC00166221-02] |  |  |  |  |  |  |  |  |  |  | > 20 | > 20 | > 10 | > 10 | > 20 | > 20 | > 20 | > 20 | > 20 | > 20 |
